Reference: patent US6951651B2, “CTL epitope analogs” (priority 1999, dated 2005)
Where two headings read alike, the source gives them in different places. Ends that are not written are not given here.

Experiments:
[1] = tested on: T cell clones from HLA A*0201 individuals seropositive for HCMV; settings: for T cell clones giving greater specific cytotoxicity at a lower concentration than the native sequence: five T cell clones, EBVLCL targets sensitized at 5.0 or 0.5 nM; for recognition by T cell clones other than 3-3F4: four additional T cell clones from different HCMV-seropositive volunteers, up to 5 nM
Procedure: Chromium release assays were performed according to the methods of (20). Briefly, target cell lines (antigen presenting cells which present pp65495-503) were labeled for one hour with 200 μCi/ml ^51Cr (ICN™, Costa Mesa, Calif.). HCMV infected targets were prepared as follows. Five-hundred thousand fibroblasts were pretreated with 800 U/10^6 recombinant IFN-γ, (Preprotech™, Rocky Hill, N.J.) to upregulate MHC class I expression and HCMV was added at an m.o.i. of 4. Cells were incubated with virus for two hours at 37° C., in a 5% CO2 incubator. Fresh FBM containing IFN-γ was then added and the cells incubated for an additional 14 hours. Infected fibroblasts were trypsinized, labeled with ^51Cr as described above and used in the assay at an effector-to-target ratio (E/T) of 50 and 10. Epstein-Barr virus transformed B cell lines (EBVLCL) were generated following standard technology using the supernatant of EBV-infected marmoset cells. EBVLCL were grown in medium consisting of RPMI-1640 (Gibco™, Rockville, Md.) supplemented with 10% FBS, 10 mM Hepes Buffer Solution (Irvine Scientific™, Santa Ana, Calif.), penicillin, streptomycin and L-glutamine as described for fibroblast medium. The cells used as targets were prepared by pulsing with […] pp65495-503 peptide, and used at an E/T of 25 and 5. For PS-SCL screening and titration of analog peptides, T2 cells, maintained as described in Diamond et al., Blood 90:1751-1767 (1997), were pulsed with serial peptide dilutions for use as targets for T cell clone effectors at an E/T of 5.
(§1) In the assay, loaded targets and effectors were mixed in culture and incubated for four hours, at which time chromium release was measured. Supernatants were collected on filter frames (Skatron™, Oslo, Norway) and radioactivity determined in a Cobra II gamma counter (Packard™, Meriden, Conn.). For each assay, spontaneous release from the target cells in the absence of effector CTL and maximum possible release after treatment with 2% SDS (Baker Chemicals™, Phillipsburg, N.J.) was determined. Specific cytotoxicity was defined as: 100×[(Re−Rs)/Max−Rs)], where Re=experimental release, and Rs=spontaneous release.
The T cell clones were stimulated in vitro with the native sequence of pp65495-503 (SEQ ID NO:1) as described in Example 2.

T cell clone 3-3F4 [2] = test: PS-SCL screen and simultaneous native peptide titration, T2 cells, T cell clone 3-3F4; type: cell-based, human; settings: E:T 5, read-out: concentration sensitizing 50% maximal lysis of T2 cells by 3-3F4
Procedure: Chromium release assays were performed according to the methods of (20). Briefly, target cell lines (antigen presenting cells which present pp65495-503) were labeled for one hour with 200 μCi/ml ^51Cr (ICN™, Costa Mesa, Calif.). HCMV infected targets were prepared as follows. Five-hundred thousand fibroblasts were pretreated with 800 U/10^6 recombinant IFN-γ, (Preprotech™, Rocky Hill, N.J.) to upregulate MHC class I expression and HCMV was added at an m.o.i. of 4. Cells were incubated with virus for two hours at 37° C., in a 5% CO2 incubator. Fresh FBM containing IFN-γ was then added and the cells incubated for an additional 14 hours. Infected fibroblasts were trypsinized, labeled with ^51Cr as described above and used in the assay at an effector-to-target ratio (E/T) of 50 and 10. […]
as §1, with “Specific cytotoxicity was defined as: 100×[(Re−Rs)/Max−Rs)], where Re=experimental release, and Rs=spontaneous release.” left out

T cell clone 3-3F4 [3] = test: Chromium release assay, peptide-sensitized targets lysed by T cell clone 3-3F4; type: cell-based, human; settings: for Conc. (nM): concentration of peptide in which specific killing was between 15 and 30 percent: HLA A*0201-restricted EBVLCL targets, 3-3F4 effectors, E:T=5, 10-fold dilutions 500-0.00005 nM; for recognition by T cell clone 3-3F4 (in words): chromium release assay
Procedure: Nonamer peptides with the substitutions as shown at each position were synthesized as described in Example 1. […] Results of these assays are shown in the right-hand column of Table II, in terms of concentration of peptide (nM) in which specific killing was between 15 and 30 percent. Results presented are the average from at least three independent experiments carried out on different days using different batches of T cell […]. Peptides were tested using 10-fold dilutions, ranging from 500-0.00005 nM.
(§2) To take advantage of the increased immunogenicity of peptides 44 and 46, while maintaining the universal recognition of the native peptide, library-directed changes were made to peptides 44 and 46, substituting back the native amino acids. A series of 21 peptides were constructed based upon the sequence of the tetra-substituted peptides 44 and 46 in each of the carboxyl terminal amidated and free acid forms. The peptides contained single, double, or triple substitutions of amino acids of the native sequence at the positions indicated. These peptides were assayed utilizing a standard chromium release assay with the screening T cell clone, 3-3F4, and a representative T cell clone (VB57) from another individual expressing a different T cell receptor.

T cell clone 3-3F4 [4] = test: Flow-cytometric HLA A2-Ig dimer binding to T cell clone 3-3F4; design: species or system human; settings: specific fluorescence, peptide-loaded HLA A2-Ig dimers
Procedure: HLA A2-Ig dimer aliquots were individually loaded with a series of peptides, and incubated with two different T cell clones, 3-3F4 and VB57. The soluble HLA-A2-Ig complexes (HLA dimers) were loaded with peptide according to the methods of Greten et al., Proc. Natl. Acad. Sci. USA 95:7568-7573 (1998). For each peptide analog to be tested, 10 μg of HLA dimers in 10 μl PBS containing 0.02% NaN3 (Baker Chemical™, Phillipsburg, N.J.) was incubated for three days at 4° C. with 660-fold molar excess peptide. Dimers also were loaded with the pp65495-503 native peptide, an irrelevant peptide (pp54 B*0702 epitope), and 2 μl PBS buffer containing 0.02% NaN3, in all experiments to serve as controls. One microgram aliquots of peptide loaded dimers were mixed with 0.2 million of either T cell clone 3-3F4 or VB57 for 75 minutes on ice. Cells were washed in PBS containing 2% FBS and 0.02% NaN3 (WB), and subsequently stained with 0.9 μl/sample of goat anti-mouse IgG1-PE (Caltag™, Burlingame, Calif.). After two additional washings in WB, cells were analyzed by fluorescence-activated cell sorting (FACSCalibur™). Specific fluorescence was calculated as fluorescence ratio between the mean fluorescence of the peptide-loaded diners and the mean fluorescence of the buffer-loaded control diners. Peptides names ending in N are amidated, while those ending in C are free acids. Each peptide-loaded diner complex was tested at least twice with two different T cell clones (3-3F4 and VB57). The fluorescence indices indicated in the Figure are an average of both experiments.

[5] = tested on: peripheral blood CTL of HCMV-seropositive HLA A*0201 donors; type: cell-based, human; settings: amidated peptides
Procedure: Sixteen to twenty-four million of the ficoll-separated peripheral blood mononuclear cells were incubated 2-3 hours at 37° C. in a 5% CO2 incubator with 100 μM HCMV PP65495-503 peptide (SEQ ID NO: 1) in a volume of 100 μl of T cell culture medium (IVSTCM). IVSTCM consists of RPMI-1640 supplemented with 20% heat inactivated HAB serum, 10 IU/ml r-IL2 (Chiron™, Emeryville, Calif.); 25 mM Hepes Buffer Solution, 50 U/ml penicillin, 50 μg/ml streptomycin, 2 mM L-glutamine and 0.5 mM sodium pyruvate (Gibco™, Rockville, Md.). […] After the incubation period, the cells, now presenting pp65495-503 were resuspended in 2 ml IVSTCM, and γ-irradiated (2,400 rads) using the Isomedic Model 19 Gammator (Nuclear Canada, Parsippany, N.J.).
During the peptide incorporation procedure, an additional aliquot of 10-20 million cells from the same freshly separated peripheral blood mononuclear cells was depleted of CD4^+, CD16^+ and CD56^+ cells as follows. […] The resulting population was >80% CD8^+ as determined using a FAGSCalbur™ fluorescence activated cell sorter (BD Immunocytomeyry Systems™, Palo Alto, Calif.). […]
Peripheral blood from separate individuals was stimulated with peptides 115, 118, and 193 and subjected to a chromium release assay. […] Lymphocytes from three individuals were used for all four peptides, including SEQ ID NO:1, and one individual was evaluated with 193 peptide and the positive control.

HLA A*0201 = biological target: T1, HLA A*0201 (Homo sapiens, UniProt P04439, D140Y/D185E/D98H/E176V/E277Q/G131W/G231S/I119V/I121R/I166T/I218V/L300P/L318F/N151K/N90K/P208A/P217A/Q86G/Q94H/R138H/R169H/T345S); test: T2 assembly assay (MHC binding affinity); settings: for difference between acid and amide forms in binding to HLA A*0201: T2 assembly assay; for MHC affinity (fluorescence ratio) by T2 assembly assay: T2 cells, 100 μM peptide overnight, mAb BB7.2
T1 construct: endogenous in cells; host or cells: T2 cells (TAP-deficient); β2-microglobulin purchased from Sigma, catalogue number not given
Procedure: See the methods of Nijman et al., Eur. J. Immunol. 23:1215-1219 (1993).
For each analog to be tested, 250,000 T2 cells were washed twice and resuspended in serum free IMDM and incubated overnight with 100 μM peptide together with 15 μg/ml human β2-microglobulin (Sigma™, Lt. Louis, Mo.) at 37° C. in a 5% CO2 incubator. […] After washing twice with cold buffer, FITC-conjugated rat anti-mouse IgG2a/2b (1:40 dilution; Pharmingen™, San Diego, Calif.) was added and incubated for another 30 minutes at 4° C. The cells were washed twice in cold buffer, and mean fluorescence intensity (MFI) of 10^4 gated cells was measured using a FACSCalibur™.
Fluorescence ratio is defined as mean fluorescence with peptide/mean fluorescence without peptide. Results for the amidated peptides indicate only slight changes in MHC binding.

T cell clone VB57 = test: Chromium release assay, peptide-sensitized targets lysed by T cell clone VB57; type: cell-based, human
Description: as §2

YLVPMVASV-NH2 [Peptide 115N]
T cell clones giving greater specific cytotoxicity at a lower concentration than the native sequence [1]: two out of five

NLVPMVATV [Peptide A7C, reference compound]
EC50 (T cell clone 3-3F4 [2]): 0.02 nM
Conc. (nM): concentration of peptide in which specific killing was between 15 and 30 percent (T cell clone 3-3F4 [3]): 0.5 nM
HLA-Ig dimer binding to T cell clone 3-3F4 (T cell clone 3-3F4 [4]): bound well

YLLPMVVSV-NH2 [Peptide 44N]
recognition by individuals' peripheral blood T cells after in vitro stimulation with the peptide [5]: only T cells from the individual from whom the PS-SCL screen clone was derived showed any positive response
difference between acid and amide forms in binding to HLA A*0201 (HLA A*0201): substantial binding differences
MHC affinity (fluorescence ratio) by T2 assembly assay (HLA A*0201): not dramatically different from the native sequence
Conc. (nM): concentration of peptide in which specific killing was between 15 and 30 percent (T cell clone 3-3F4 [3]): 0.00005 nM
recognition by T cell clone 3-3F4 (in words) (T cell clone 3-3F4 [3]): better recognized than the native epitope sequence
HLA-Ig dimer binding to T cell clone 3-3F4 (T cell clone 3-3F4 [4]): poor binders
recognition by T cell clones other than 3-3F4 [1]: No T cell clone other than 3-3F4 recognized
recognition by T cell clones other than 3-3F4 ([1]; listed as 44): not recognized by any of the T cell clones in the cohort

112C: nonamer NLVPMVASV, SEQ ID NO 46 (NLVPMVASV-OH) [Peptide 112C]
Peptide Concentration (nM), Free Acid, 3-3F4 (T cell clone 3-3F4 [3]; free acid peptide, chromium release, T cell clone 3-3F4): 5 nM
Peptide Concentration (nM), Free Acid, VB57 (T cell clone VB57; free acid peptide): 0.5 nM

NLLPMVASV-NH2 [Peptide 118N]
T cell clones giving greater specific cytotoxicity at a lower concentration than the native sequence [1]: three out of five

114N: nonamer YLVPMVTTV amide, SEQ ID NO 61 (YLVPMVTTV-NH2) [Peptide 114N]
Peptide Concentration (nM), Amide, 3-3F4 (T cell clone 3-3F4 [3]; carboxyl terminal amide peptide, chromium release, T cell clone 3-3F4): 0.05 nM
Peptide Concentration (nM), Amide, VB57 (T cell clone VB57; carboxyl terminal amide peptide): 5 nM

YLVPMVATV-NH2 [Peptide 193N]
T cell clones giving greater specific cytotoxicity at a lower concentration than the native sequence [1]: two out of five

YLLPMVTSV-NH2 [Peptide 46N]
recognition by individuals' peripheral blood T cells after in vitro stimulation with the peptide [5]: only T cells from the individual from whom the PS-SCL screen clone was derived showed any positive response
difference between acid and amide forms in binding to HLA A*0201 (HLA A*0201): substantial binding differences
MHC affinity (fluorescence ratio) by T2 assembly assay (HLA A*0201): not dramatically different from the native sequence
Conc. (nM): concentration of peptide in which specific killing was between 15 and 30 percent (T cell clone 3-3F4 [3]): 0.0005 nM
recognition by T cell clone 3-3F4 (in words) (T cell clone 3-3F4 [3]): better recognized than the native epitope sequence
HLA-Ig dimer binding to T cell clone 3-3F4 (T cell clone 3-3F4 [4]): poor binders
recognition by T cell clones other than 3-3F4 [1]: No T cell clone other than 3-3F4 recognized
recognition by T cell clones other than 3-3F4 ([1]; listed as 46): not recognized by any of the T cell clones in the cohort
